From ChEMBL document CHEMBL5380866, “Discovery of Selective P2Y6R Antagonists with High Affinity and In Vivo Efficacy for Inflammatory Disease Therapy” (J Med Chem, 2023)
pIC50: −log10 of the molar value.

Experiments:
P2Y purinoceptor 6 [1] = biological target: T1, P2Y purinoceptor 6 (Homo sapiens, UniProt Q15077); experiment: Antagonist activity at human P2Y6R expressed in HEK293 cells assessed as inhibition of UDP-induced IP3 production preincubated for 0.5 hrs followed by UDP stimulation and measured after 12 hrs by ELISA analysis; format: functional, cell-based
T1 sequence (Q15077 whole entry): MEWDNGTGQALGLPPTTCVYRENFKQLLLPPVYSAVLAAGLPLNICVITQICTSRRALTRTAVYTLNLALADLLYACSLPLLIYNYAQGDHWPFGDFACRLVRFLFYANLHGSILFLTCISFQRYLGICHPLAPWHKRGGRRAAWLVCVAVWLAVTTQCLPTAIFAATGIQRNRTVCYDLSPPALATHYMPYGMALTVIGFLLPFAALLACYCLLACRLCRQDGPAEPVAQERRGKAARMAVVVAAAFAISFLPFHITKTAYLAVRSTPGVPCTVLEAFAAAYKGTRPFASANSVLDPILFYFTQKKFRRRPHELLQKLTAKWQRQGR

P2Y purinoceptor 12 = P2Y purinoceptor 12 (Homo sapiens, UniProt Q9H244); experiment: Antagonist activity at human P2Y12R expressed in HEK293 cells assessed as inhibition of MeSADP-induced cAMP production preincubated for 0.5 hrs followed by MeSADP stimulation by cAMP-glo analysis; format: functional, cell-based
Sequence of P2Y purinoceptor 12 (Q9H244 whole entry): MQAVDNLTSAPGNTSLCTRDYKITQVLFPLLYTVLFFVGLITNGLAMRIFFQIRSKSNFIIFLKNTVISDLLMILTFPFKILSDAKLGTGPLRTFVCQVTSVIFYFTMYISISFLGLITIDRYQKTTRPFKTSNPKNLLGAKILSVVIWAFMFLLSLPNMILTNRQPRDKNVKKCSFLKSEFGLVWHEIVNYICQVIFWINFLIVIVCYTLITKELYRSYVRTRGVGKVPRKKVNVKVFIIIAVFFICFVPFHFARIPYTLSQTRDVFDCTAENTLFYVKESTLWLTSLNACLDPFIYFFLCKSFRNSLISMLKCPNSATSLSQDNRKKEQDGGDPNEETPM

P2Y purinoceptor 14 = biological target: T2, P2Y purinoceptor 14 (Homo sapiens, UniProt Q15391); experiment: Antagonist activity at human P2Y14R expressed in HEK293 cells assessed as inhibition of UDPG-induced cAMP production preincubated for 0.5 hrs followed by UDPG stimulation by cAMP-glo analysis; format: functional, cell-based
T2 sequence (Q15391 whole entry): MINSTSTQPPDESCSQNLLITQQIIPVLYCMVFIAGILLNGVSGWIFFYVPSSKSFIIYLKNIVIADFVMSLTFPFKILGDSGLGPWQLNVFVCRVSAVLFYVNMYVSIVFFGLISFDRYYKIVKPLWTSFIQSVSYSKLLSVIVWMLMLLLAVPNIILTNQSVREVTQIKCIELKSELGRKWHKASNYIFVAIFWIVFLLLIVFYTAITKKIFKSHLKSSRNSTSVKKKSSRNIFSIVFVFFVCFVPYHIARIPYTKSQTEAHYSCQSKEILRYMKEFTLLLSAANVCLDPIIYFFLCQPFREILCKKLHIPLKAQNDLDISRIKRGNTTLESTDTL

P2Y purinoceptor 6 [2] = biological target: T1, P2Y purinoceptor 6; experiment: Antagonist activity at P2Y6R (unknown origin)

Cc1ccc2oc(-c3cc(-c4ccc[nH]4)n(C(C)(C)C)n3)nc2c1
pIC50 (P2Y purinoceptor 6 [1]): 6.59

Cc1cccc2oc(-c3cc(-c4ccco4)n(C(C)(C)C)n3)nc12
pIC50 (P2Y purinoceptor 6 [1]): 7.03

CCCSc1nc(N[C@@H]2C[C@H]2c2ccc(F)c(F)c2)c2nnn([C@@H]3C[C@H](OCCO)[C@@H](O)[C@H]3O)c2n1 [TICAGRELOR]
pIC50 (P2Y purinoceptor 12): 5.85

CC(C)(C)n1nc(-c2nc3c(Cl)cccc3[nH]2)cc1-c1ccco1
pIC50 (P2Y purinoceptor 6 [1]): 7.03

O=C(O)c1cc(-c2ccccc2C2CCNCC2)c2ccc(-c3ccc(C(F)(F)F)cc3)cc2c1
pIC50 (P2Y purinoceptor 14): 5.28

O=S(=O)(O)c1cc(N=C=S)ccc1/C=C/c1ccc(N=C=S)cc1S(=O)(=O)O
pIC50 (P2Y purinoceptor 6 [2]): 5.28

CC(C)(C)n1nc(-c2nc3cc(OC(F)(F)F)ccc3[nH]2)cc1-c1ccco1
pIC50 (P2Y purinoceptor 6 [1]): 6.89

CC(C)n1nc(-c2nc3ccccc3s2)cc1-c1ccccc1
pIC50 (P2Y purinoceptor 6 [1]): 7.06

CC(C)(C)n1nc(-c2nc3ccccc3[nH]2)cc1-c1ccccc1
pIC50 (P2Y purinoceptor 6 [1]): 7.31

CC(C)(C)n1nc(-c2nc3cc(Cl)ccc3[nH]2)cc1-c1ccccc1
pIC50 (P2Y purinoceptor 6 [1]): 6.67

Cc1ccc2nc(-c3cc(-c4ccccc4)n(C(C)(C)C)n3)oc2c1
pIC50 (P2Y purinoceptor 6 [1]): 7.37

CC(C)(C)n1nc(-c2nc3ccccc3s2)cc1-c1ccccc1
pIC50 (P2Y purinoceptor 6 [1]): 6.50

Cc1ccc2cc(C3CC(c4ccco4)=NN3C(=O)CCC(=O)O)c(Cl)nc2c1 (stereo not drawn)
pIC50 (P2Y purinoceptor 6 [1]): 6.90
